The target in test [1] is GDP-bound KRAS wild-type protein (Homo sapiens, UniProt P01116). Nature of the test: Binding to KRAS by surface plasmon resonance (SPR), dissociation constant KD. The following applies: Single Cycle Kinetics, 1:1 binding model. In short, it runs like this: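 Running buffer contained 10 µM GDP and 10 mM MgCl2 to keep RAS in the GDP state, with 4% DMSO at pH 7.4. Compounds were flowed at 100 µL/min in 75 s steps of rising concentration over captured biotin-Avi RAS at 30°C. Sensorgrams were fitted 1:1 for KD.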

Test [2] has as its target GDP-bound NRAS wild-type protein (Homo sapiens, UniProt P01111). Description: Binding to NRAS by surface plasmon resonance (SPR), KD and KD ratio to KRAS. The following applies: ratio of the KD value with respect to GDP-bound NRAS wild-type protein to the KD value with respect to KRAS. In short, it runs like this: (§1)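 Compound binding is evaluated by SPR single-cycle kinetics, with concentrations added intermittently from low to high for 75 s each. Target surfaces carry GDP-loaded biotinylated Avi-RAS at about 100–300 RU, regenerated after each cycle; temperature 30°C. A 1:1 binding model gives KD.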

The target of another test is HRAS wild-type protein (Homo sapiens, UniProt P01112). Description: Binding to HRAS by surface plasmon resonance (SPR), KD and KD ratio to KRAS. The following applies: ratio of the KD value with respect to HRAS wild-type protein to the KD value with respect to KRAS. In a few lines: as §1
For test [3], the system named is human lung cancer strain NCI-H441. Type of test: cell-based. In short, it runs like this: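 Proliferation was scored by […] measured after the reagent was added to cultures kept at 37°C in 5% carbon dioxide.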

pIC50, pKd: −log10 of the molar value.

Sequence of GDP-bound NRAS wild-type protein (P01111 whole entry): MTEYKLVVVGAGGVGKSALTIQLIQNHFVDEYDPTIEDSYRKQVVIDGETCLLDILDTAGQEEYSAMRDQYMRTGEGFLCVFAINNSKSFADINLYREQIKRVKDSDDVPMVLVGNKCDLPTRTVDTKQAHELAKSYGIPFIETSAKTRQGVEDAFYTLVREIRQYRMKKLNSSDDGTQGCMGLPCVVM
Sequence of GDP-bound KRAS wild-type protein (P01116 1-188 isoform P01116-2): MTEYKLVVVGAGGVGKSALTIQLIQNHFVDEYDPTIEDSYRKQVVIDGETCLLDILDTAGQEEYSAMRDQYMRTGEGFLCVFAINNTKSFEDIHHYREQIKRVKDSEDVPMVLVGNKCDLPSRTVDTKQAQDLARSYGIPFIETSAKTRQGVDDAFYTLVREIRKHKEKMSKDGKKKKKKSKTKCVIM
Sequence of HRAS wild-type protein (P01112 whole entry): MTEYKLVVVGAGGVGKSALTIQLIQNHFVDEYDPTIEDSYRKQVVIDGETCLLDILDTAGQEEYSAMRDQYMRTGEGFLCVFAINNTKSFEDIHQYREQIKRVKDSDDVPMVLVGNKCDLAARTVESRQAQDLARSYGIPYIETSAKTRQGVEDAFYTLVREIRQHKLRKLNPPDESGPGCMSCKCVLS

In test [1], `CCO[C@@H]1C[C@H]2C(=O)NC3(CC(C)(C)C3)C(=O)N(C)[C@@H](C3CCCC3)C(=O)N(C)[C@H](C(=O)N(C)C)CC(=O)N(C)[C@@H](CC(C)C)C(=O)N[C@@H]([C@@H](C)CC)C(=O)N(C3CC3)CC(=O)N(C)[C@H]3C/C=C\CCN(C3=O)[C@@H](Cc3ccc(C)cc3)C(=O)N(C)CC(=O)N[C@@H](CCc3cc(F)c(C(F)(F)F)c(F)c3)C(=O)N2C1` [PP2109] gave a pKd of 9.54. The “NRAS /KRAS” value in test [2] is “A (a compound having 10 or more and less than 20 is denoted as A)”. In addition, the “HRAS /KRAS” value on HRAS wild-type protein is “A (a compound having 10 or more and less than 20 is denoted as A)”. Also, the pIC50 in test [3] was 8.24.

The compound `CCO[C@@H]1C[C@H]2C(=O)NC3(CCC3)C(=O)N(C)[C@@H](C3CCCC3)C(=O)N(C)[C@H](C(=O)N(C)CC)CC(=O)N(C)[C@H]3CCCCCc4ccc(cc4)C[C@@H](C(=O)N(C)CC(=O)N[C@@H](CCc4cc(F)c(C(F)(F)F)c(F)c4)C(=O)N2C1)N1CC/C=C\C[C@@H](C1=O)N(C)C(=O)CN(C)C(=O)[C@H]([C@@H](C)CC)NC3=O` [PP2117] gave a pKd in test [1] of 9.77. Moreover, in test [2], the “NRAS /KRAS” value is “A (a compound having 10 or more and less than 20 is denoted as A)”. In addition, the “HRAS /KRAS” value on HRAS wild-type protein is “A (a compound having 10 or more and less than 20 is denoted as A)”. This compound also showed a pIC50 in test [3] of 7.54.

The compound `CCO[C@@H]1C[C@H]2C(=O)NC3(CC(C)(C)C3)C(=O)N(C)[C@@H](C(CC)CC)C(=O)N(C)[C@H](C(=O)N3CCCC3)CC(=O)N(C)[C@@H](COC)C(=O)N[C@@H]([C@@H](C)CC)C(=O)N(C)CC(=O)N(C)[C@H]3C/C=C\CCN(C3=O)[C@@H](Cc3ccc(C)cc3)C(=O)N(C)CC(=O)N[C@@H](CCc3cc(F)c(C(F)(F)F)c(F)c3)C(=O)N2C1` [PP2139] gave a pKd in test [1] of 9.42. The “NRAS /KRAS” value in test [2] is listed as “AA (a compound having 20 or more is denoted as AA)”. For the same compound, the “HRAS /KRAS” value on HRAS wild-type protein was “A (a compound having 10 or more and less than 20 is denoted as A)”. Further, the pIC50 in test [3] is 7.42.

`CCO[C@@H]1C[C@H]2C(=O)NC3(CC(C)(C)C3)C(=O)N(C)[C@@H](C(CC)CC)C(=O)N(C)[C@H](C(=O)N(C)C)CC(=O)N(C)[C@@H](CC(C)C)C(=O)N[C@@H]([C@@H](C)CC)C(=O)N(C)CC(=O)N(C)[C@H]3C/C=C\CCN(C3=O)[C@@H](Cc3ccc(C)cc3)C(=O)N(C)CC(=O)N[C@@H](CCc3cc(F)c(C(F)(F)F)c(F)c3)C(=O)N2C1` [PP2141] gave a pKd in test [1] of 9.77. The “NRAS /KRAS” value in test [2] was “A (a compound having 10 or more and less than 20 is denoted as A)”. Besides, the “HRAS /KRAS” value on HRAS wild-type protein was “A (a compound having 10 or more and less than 20 is denoted as A)”. In test [3], this compound had a pIC50 of 8.03.

Consider `CCO[C@@H]1C[C@H]2C(=O)NC3(CC(C)(C)C3)C(=O)N(C)[C@@H](C(CC)CC)C(=O)N(C)[C@H](C(=O)N(C)C)CC(=O)N(C)[C@@H](CC3CC3)C(=O)N[C@@H]([C@@H](C)CC)C(=O)N(C)CC(=O)N(C)[C@H]3C/C=C\CCN(C3=O)[C@@H](Cc3ccc(C)cc3)C(=O)N(C)CC(=O)N[C@@H](CCc3ccc(C(F)(F)F)c(Cl)c3)C(=O)N2C1` [PP2142], for which the pKd in test [1] is 9.52. Besides, the “NRAS /KRAS” value in test [2] was “AA (a compound having 20 or more is denoted as AA)”. The “HRAS /KRAS” value on HRAS wild-type protein is “A (a compound having 10 or more and less than 20 is denoted as A)”. The compound also showed a pIC50 in test [3] of 7.99.

In test [1], `CCO[C@@H]1C[C@H]2C(=O)NC3(CC(C)(C)C3)C(=O)N(C)[C@@H](C(CC)CC)C(=O)N(C)[C@H](C(=O)N(C)C)CC(=O)N(C)[C@@H](CC(C)C)C(=O)N[C@@H]([C@@H](C)CC)C(=O)N(C)CC(=O)N(C)[C@H]3C/C=C\CCN(C3=O)[C@@H](Cc3ccc(C)cc3)C(=O)N(C)CC(=O)N[C@@H](CCc3ccc(C(F)(F)F)c(Cl)c3)C(=O)N2C1` [PP2148] had a pKd of 9.47. Besides, in test [2], the “NRAS /KRAS” value was “A (a compound having 10 or more and less than 20 is denoted as A)”. For the same compound, the “HRAS /KRAS” value on HRAS wild-type protein was “A (a compound having 10 or more and less than 20 is denoted as A)”. Further, the pIC50 in test [3] was 7.38.

`CCO[C@@H]1C[C@H]2C(=O)NC3(CC(C)(C)C3)C(=O)N(C)[C@@H](C(CC)CC)C(=O)N(C)[C@H](C(=O)N(C)C)CC(=O)N(C)[C@@H](C(C)C)C(=O)N[C@@H]([C@@H](C)CC)C(=O)N(C)CC(=O)N(C)[C@H]3C/C=C\CCN(C3=O)[C@@H](Cc3ccc(C)cc3)C(=O)N(C)CC(=O)N[C@@H](CCc3cc(F)c(C(F)(F)F)c(F)c3)C(=O)N2C1` [PP2153]: the pKd in test [1] was 9.31. Moreover, the “NRAS /KRAS” value in test [2] is “A (a compound having 10 or more and less than 20 is denoted as A)”. Further, the “HRAS /KRAS” value at HRAS wild-type protein was “A (a compound having 10 or more and less than 20 is denoted as A)”. The pIC50 in test [3] was 7.70.

For the compound `CCO[C@@H]1C[C@H]2C(=O)NC3(CC(C)(C)C3)C(=O)N(C)[C@@H](C(CC)CC)C(=O)N(C)[C@H](C(=O)N(C)C)CC(=O)N(C)[C@@H](C(C)C)C(=O)N[C@@H]([C@@H](C)CC)C(=O)N(C)CC(=O)N(C)[C@H]3C/C=C\CCN(C3=O)[C@@H](Cc3ccc(C)cc3)C(=O)N(C)CC(=O)N[C@@H](CCc3ccc(C(F)(F)F)c(Cl)c3)C(=O)N2C1` [PP2158], the negative-log Kd (pKd) in test [1] was 9.10. For the same compound, the “NRAS /KRAS” value in test [2] is “AA (a compound having 20 or more is denoted as AA)”. For the same compound, the “HRAS /KRAS” value at HRAS wild-type protein was “A (a compound having 10 or more and less than 20 is denoted as A)”. Moreover, in test [3], the pIC50 is 7.60.

In the case of `CCO[C@@H]1C[C@H]2C(=O)NC3(CC(C)(C)C3)C(=O)N(C)[C@@H](C(CC)CC)C(=O)N(C)[C@H](C(=O)N(C)C)CC(=O)N(C)[C@@H](CC)C(=O)N[C@@H]([C@@H](C)CC)C(=O)N(C)CC(=O)N(C)[C@H]3C/C=C\CCN(C3=O)[C@@H](Cc3ccc(C(F)(F)F)cc3)C(=O)N(C)CC(=O)N[C@@H](CCc3ccc(Cl)c(Cl)c3)C(=O)N2C1` [PP2179], in test [1], the pKd was 8.82. Also, the “NRAS /KRAS” value in test [2] is given as “AA (a compound having 20 or more is denoted as AA)”. Besides, the “HRAS /KRAS” value at HRAS wild-type protein is “A (a compound having 10 or more and less than 20 is denoted as A)”. Moreover, the pIC50 in test [3] was 7.87.

Regarding `CCO[C@@H]1C[C@H]2C(=O)NC3(CC(C)(C)C3)C(=O)N(C)[C@@H](C(CC)CC)C(=O)N(C)[C@H](C(=O)N(C)C)CC(=O)N(C)[C@@H](CC3CC3)C(=O)N[C@@H]([C@@H](C)CC)C(=O)N(C)CC(=O)N(C)[C@H]3C/C=C\CCN(C3=O)[C@@H](Cc3ccc(C)cc3)C(=O)N(C)CC(=O)N[C@@H](CCc3ccc(Cl)c(Cl)c3)C(=O)N2C1` [PP2182], the pKd in test [1] is 9.14. The “NRAS /KRAS” value in test [2] is reported as “AA (a compound having 20 or more is denoted as AA)”. For the same compound, on HRAS wild-type protein, the “HRAS /KRAS” value is “A (a compound having 10 or more and less than 20 is denoted as A)”. In test [3], this compound gave a pIC50 of 7.71.

In test [1], `CC[C@H](C)[C@@H]1NC(=O)[C@H](CC(C)C)N(C)C(=O)C[C@@H](C(=O)N(C)C)N(C)C(=O)[C@H](C2CCCC2)N(C)C(=O)C2(CCCC2)NC(=O)[C@@H]2C[C@@H](C)CN2C(=O)[C@H](CCc2cc(F)c(C(F)(F)F)c(F)c2)NC(=O)CN(C)C(=O)[C@H](Cc2ccc(C)cc2)N2CC/C=C\C[C@@H](C2=O)N(C)C(=O)CN(C)C1=O` [PP2189] had a pKd of 9.77. In test [2], the “NRAS /KRAS” value is “A (a compound having 10 or more and less than 20 is denoted as A)”. Besides, the “HRAS /KRAS” value on HRAS wild-type protein is “A (a compound having 10 or more and less than 20 is denoted as A)”. The same compound gave a pIC50 in test [3] of 7.98.

In the case of `CCC[C@H]1C(=O)N[C@@H](C2CCCC2)C(=O)N(C)CC(=O)N(C)[C@H]2C/C=C\CCN(C2=O)[C@@H](Cc2ccc(C)cc2)C(=O)N(C)CC(=O)N[C@@H](CCc2ccc(C(F)(F)F)c(Cl)c2)C(=O)N2C[C@H](OCC)C[C@H]2C(=O)NC2(CC(C)(C)C2)C(=O)N(C)[C@@H](CC(C)C)C(=O)N(C)[C@H](C(=O)N(C)C)CC(=O)N1C` [PP2190], in test [1], the pKd is 9.04. Also, in test [2], the “NRAS /KRAS” value is “A (a compound having 10 or more and less than 20 is denoted as A)”. In addition, the “HRAS /KRAS” value on HRAS wild-type protein was “A (a compound having 10 or more and less than 20 is denoted as A)”. The compound further gave a pIC50 in test [3] of 7.07.

For `CC[C@@H]1C[C@H]2C(=O)NC3(CCCC3)C(=O)N(C)[C@@H](C3CCCC3)C(=O)N(C)[C@H](C(=O)N(C)C)CC(=O)N(C)[C@@H](CC(C)C)C(=O)N[C@@H]([C@@H](C)CC)C(=O)N(C)CC(=O)N(C)[C@H]3C/C=C\CCN(C3=O)[C@@H](Cc3ccc(C)cc3)C(=O)N(C)CC(=O)N[C@@H](CCc3cc(F)c(C(F)(F)F)c(F)c3)C(=O)N2C1` [PP2191], in test [1], the pKd is 9.64. For the same compound, the “NRAS /KRAS” value in test [2] is “A (a compound having 10 or more and less than 20 is denoted as A)”. For the same compound, the “HRAS /KRAS” value on HRAS wild-type protein is “B (a compound having 3 or more and less than 10 is denoted as B)”. The negative logarithm of the IC50 (pIC50) in test [3] was 7.04.

`CCC[C@H]1C(=O)N[C@@H](C2CCCC2)C(=O)N(C)CC(=O)N(C)[C@H]2C/C=C\CCN(C2=O)[C@@H](Cc2ccc(C)cc2)C(=O)N(C)CC(=O)N[C@@H](CCc2ccc(C(F)(F)F)c(Cl)c2)C(=O)N2C[C@H](OCC)C[C@H]2C(=O)NC2(CC(C)(C)C2)C(=O)N(C)[C@@H](CC(F)(F)F)C(=O)N(C)[C@H](C(=O)N(C)C)CC(=O)N1C` [PP2192] showed a negative-log Kd (pKd) in test [1] of 8.48. In test [2], the “NRAS /KRAS” value is “A (a compound having 10 or more and less than 20 is denoted as A)”. Further, on HRAS wild-type protein, the “HRAS /KRAS” value is “A (a compound having 10 or more and less than 20 is denoted as A)”. Also, the negative logarithm of the IC50 (pIC50) in test [3] was 7.04.

Source of the values: patent EP4603105A1, “PHARMACEUTICAL COMPOSITION CONTAINING CYCLIC COMPOUND HAVING SELECTIVE KRAS INHIBITORY EFFECT AGAINST HRAS AND NRAS” (CHUGAI SEIYAKU KABUSHIKI KAISHA, priority 2022, dated 2024).
